Data reported in patent publication US20230167118A1, “DEGRADATION OF BRUTON'S TYROSINE KINASE (BTK) BY CONJUGATION OF BTK INIDBITORS WITH E3 LIGASE LIGAND AND METHODS OF USE” (BEIGENE, LTD., priority 2020, published 2023).
Counter-ions that a name gives are not always drawn.

Key:
HEK-293 cells = experiment: HEK-293 Cytotoxicity Assay (CellTiter-Glo); type: cell-based; conditions: Homo sapiens, HEK293, 72 h incubation, CellTiter-Glo luminescence
In short: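 HEK-293 cells treated 72 h with 8 concentrations (4-fold dilutions, 0.2% DMSO final). Viability read by CellTiter-Glo luminescence; IC50 from four-parameter logistic fit of % inhibition.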

BTK = target: T1, BTK (Homo sapiens, UniProt Q06187); experiment: Cell Degradation: BTK degradation in TMD-8 cells, HTRF assay; type: cell-based; conditions: 6 h treatment, IC50 (DC50) of BTK degradation
T1 construct: High control=Cell group with added DMSO and without compound, indicating microplate readings without BTK degradation; endogenous in cells; host or cells: TMD-8 cells
T1 sequence (Q06187 whole entry): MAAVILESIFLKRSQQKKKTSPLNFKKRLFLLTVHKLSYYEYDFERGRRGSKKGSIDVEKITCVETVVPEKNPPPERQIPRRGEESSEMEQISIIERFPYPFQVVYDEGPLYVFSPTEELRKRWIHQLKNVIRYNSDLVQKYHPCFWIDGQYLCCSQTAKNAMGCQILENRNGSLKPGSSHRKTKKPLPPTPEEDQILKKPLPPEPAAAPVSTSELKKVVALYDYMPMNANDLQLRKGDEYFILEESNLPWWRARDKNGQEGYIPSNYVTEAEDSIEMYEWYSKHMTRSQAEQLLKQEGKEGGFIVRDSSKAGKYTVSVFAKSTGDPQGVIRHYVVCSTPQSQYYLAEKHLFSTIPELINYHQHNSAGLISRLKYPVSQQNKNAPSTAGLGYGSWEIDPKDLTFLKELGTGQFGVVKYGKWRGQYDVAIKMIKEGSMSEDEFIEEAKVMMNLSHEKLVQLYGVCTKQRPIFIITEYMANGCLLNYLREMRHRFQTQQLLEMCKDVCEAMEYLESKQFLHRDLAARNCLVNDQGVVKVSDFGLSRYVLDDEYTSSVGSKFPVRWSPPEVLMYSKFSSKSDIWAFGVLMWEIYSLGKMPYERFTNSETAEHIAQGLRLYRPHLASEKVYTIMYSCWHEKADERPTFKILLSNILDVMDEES
In short: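 TMD-8 cells treated 6 h with 8-dose 6-fold dilutions in 0.2% DMSO, then lysed and BTK quantified by HTRF (665/620 nm). Degradation % normalised to high/low controls; DC50 from four-parameter fit, Dmax as maximal degradation.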

Question: For Cc1cc(-c2ncnc3[nH]c(-c4ccc(C5(F)CN(CC6CCN(c7ccc(N8CCC(=O)NC8=O)cc7)CC6)C5)cn4)cc23)ccc1[C@@H](C)NC(=O)c1nc(C(C)(C)C)no1 [Example 173, (R)-3-(tert-butyl)-N-(1-(4-(6-(5-(1-((1-(4-(2,4-dioxotetrahydropyrimidin-1(2H)-yl)phenyl)piperidin-4-yl)methyl)-3-fluoroazetidin-3-yl)pyridin-2-yl)-7H-pyrrolo[2,3-d]pyrimidin-4-yl)-2-methylphenyl)ethyl)-1,2,4-oxadiazole-5-carboxamide], which IC50 (HEK-293 cells) is on record?
Answer: Its IC50 is over 10000 nM.

Question: What about the DC50 (BTK) of the same compound?
Answer: Its DC50 is 0.98 nM.

Question: How did the IC50 (HEK-293 cells) turn out when Cc1cc(-c2ncnc3[nH]c(-c4ccc(C5CCN(CCC6CCN(c7ccc(N8CCC(=O)NC8=O)c(Cl)c7)CC6)CC5)cc4)cc23)ccc1CNC(=O)c1nc(C(C)(C)C)no1 [Example 24, 3-(tert-butyl)-N-(4-(6-(4-(1-(2-(1-(3-chloro-4-(2,4-dioxotetrahydropyrimidin-1(2H)-yl)phenyl)piperidin-4-yl)ethyl)piperidin-4-yl)phenyl)-7H-pyrrolo[2,3-d]pyrimidin-4-yl)-2-methylbenzyl)-1,2,4-oxadiazole-5-carboxamide] was run?
Answer: Its IC50 is 4650 nM.

Question: What about the DC50 (BTK) of the same compound?
Answer: The DC50 was 4.8 nM.

Question: What does the source list for Cc1cc(-c2ncnc3[nH]c(-c4ccc(N5CCN(CC6CCN(c7ccc(N8CCC(=O)NC8=O)c(C)c7)CC6)CC5)c(C)c4)nc23)ccc1[C@@H](C)NC(=O)c1nc(C(C)(C)C)no1 [Example 112, (R)-3-(tert-butyl)-N-(1-(4-(8-(4-(4-((1-(4-(2,4-dioxotetrahydropyrimidin-1(2H)-yl)-3-methylphenyl)piperidin-4-yl)methyl)piperazin-1-yl)-3-methylphenyl)-9H-purin-6-yl)-2-methylphenyl)ethyl)-1,2,4-oxadiazole-5-carboxamide]?
Answer: IC50 (HEK-293 cells): > 10000 nM; DC50 (BTK): 0.76 nM

Question: For Cc1cc(-c2ncnc3[nH]c(-c4ccc(N5CCN(CC6CCN(c7ccc(N8CCC(=O)NC8=O)c(C)c7)CC6)CC5)cn4)cc23)ccc1[C@@H](C)NC(=O)c1noc(C2(CO)CC2)n1 [Example 123, (R)-N-(1-(4-(6-(5-(4-((1-(4-(2,4-dioxotetrahydropyrimidin-1(2H)-yl)-3-methylphenyl)piperidin-4-yl)methyl)piperazin-1-yl)pyridin-2-yl)-7H-pyrrolo[2,3-d]pyrimidin-4-yl)-2-methylphenyl)ethyl)-5-(1-(hydroxymethyl)cyclopropyl)-1,2,4-oxadiazole-3-carboxamide], which IC50 (HEK-293 cells) is on record?
Answer: The IC50 was over 10000 nM.

Question: What about the DC50 (BTK) of the same compound?
Answer: The DC50 was 0.16 nM.

Question: Which IC50 (HEK-293 cells) does the source give for Cc1cc(-c2ncnc3[nH]c(-c4ccc(N5CCN(CC6CCN(c7ccc(N8CCC(=O)NC8=O)cc7)CC6)CC5)cn4)cc23)ccc1[C@H](C)NC(=O)c1nc(C(C)(C)C)no1 [Example 147, (S)-3-(tert-butyl)-N-(1-(4-(6-(5-(4-((1-(4-(2,4-dioxotetrahydropyrimidin-1(2H)-yl)phenyl)piperidin-4-yl)methyl)piperazin-1-yl)pyridin-2-yl)-7H-pyrrolo[2,3-d]pyrimidin-4-yl)-2-methylphenyl)ethyl)-1,2,4-oxadiazole-5-carboxamide] here?
Answer: Its IC50 is over 10000 nM.

Question: And the DC50 (BTK)?
Answer: Its DC50 is 52.7 nM.

Question: What does the source list for CC(C)(C)c1noc(C(=O)NCc2ccc(-c3ncnc4[nH]c(-c5ccc(N6CCN(CC7CCN(c8ccc(N9CCC(=O)NC9=O)cc8)CC7)CC6)cc5)cc34)cc2CO)n1 [Example 109, 3-(tert-butyl)-N-(4-(6-(4-(4-((1-(4-(2,4-dioxotetrahydropyrimidin-1(2H)-yl)phenyl)piperidin-4-yl)methyl)piperazin-1-yl)phenyl)-7H-pyrrolo[2,3-d]pyrimidin-4-yl)-2-(hydroxymethyl)benzyl)-1,2,4-oxadiazole-5-carboxamide]?
Answer: IC50 (HEK-293 cells): > 10000 nM; DC50 (BTK): 0.72 nM

Question: What does the source list for Cc1cc(-c2ncnc3[nH]c(-c4ccc(N5CCN(CC6CCN(c7cccc(N8CCC(=O)NC8=O)c7)CC6)CC5)cn4)cc23)ccc1[C@@H](C)NC(=O)c1nc(C(C)(C)C)no1 [Example 119, (R)-3-(tert-butyl)-N-(1-(4-(6-(5-(4-((1-(3-(2,4-dioxotetrahydropyrimidin-1(2H)-yl)phenyl)piperidin-4-yl)methyl)piperazin-1-yl)pyridin-2-yl)-7H-pyrrolo[2,3-d]pyrimidin-4-yl)-2-methylphenyl)ethyl)-1,2,4-oxadiazole-5-carboxamide]?
Answer: IC50 (HEK-293 cells): > 10000 nM; DC50 (BTK): 1.2 nM

Question: With COc1ccc(C(=O)N2CCC(c3ccc(-c4cc5c(-c6ccc(CNC(=O)c7nc(C(C)(C)C)no7)c(C)c6)ncnc5[nH]4)cc3)CC2)cc1N1CCC(=O)NC1=O [Example 12, 3-(tert-butyl)-N-(4-(6-(4-(1-(3-(2,4-dioxotetrahydropyrimidin-1(2H)-yl)-4-methoxybenzoyl)piperidin-4-yl)phenyl)-7H-pyrrolo[2,3-d]pyrimidin-4-yl)-2-methylbenzyl)-1,2,4-oxadiazole-5-carboxamide] as the compound, how does the IC50 (HEK-293 cells) read?
Answer: Its IC50 is over 10000 nM.

Question: What about the DC50 (BTK) of the same compound?
Answer: Its DC50 is 2 nM.

Question: Which results are given for Cc1cc(-c2ncnc3[nH]c(-c4ccc(C5CCN(CC6CCN(c7ccc(N8CCC(=O)NC8=O)cc7F)CC6)CC5)cc4)cc23)ccc1CNC(=O)c1nc(C(C)(C)C)no1 [Example 39, 3-(tert-butyl)-N-(4-(6-(4-(1-((1-(4-(2,4-dioxotetrahydropyrimidin-1(2H)-yl)-2-fluorophenyl)piperidin-4-yl)methyl)piperidin-4-yl)phenyl)-7H-pyrrolo[2,3-d]pyrimidin-4-yl)-2-methylbenzyl)-1,2,4-oxadiazole-5-carboxamide Formate]?
Answer: IC50 (HEK-293 cells): > 10000 nM; DC50 (BTK): 1.1 nM

Question: For Cc1c(-c2ncnc3[nH]c(-c4ccc(C5CCN(CC6CCN(c7ccc(N8CCC(=O)NC8=O)cc7)CC6)CC5)cc4)cc23)cccc1N1CCn2c(cc3c2CC(C)(C)C3)C1=O [Example 9, 1-(4-(4-((4-(4-(4-(3-(7,7-dimethyl-1-oxo-1,3,4,6,7,8-hexahydro-2H-cyclopenta[4,5]pyrrolo[1,2-a]pyrazin-2-yl)-2-methylphenyl)-7H-pyrrolo[2,3-d]pyrimidin-6-yl)phenyl)piperidin-1-yl)methyl)piperidin-1-yl)phenyl)dihydropyrimidine-2,4(1H,3H)-dione], which IC50 (HEK-293 cells) is on record?
Answer: The IC50 was 746 nM.

Question: What about the DC50 (BTK) of the same compound?
Answer: The DC50 was 7.2 nM.

Question: Which IC50 (HEK-293 cells) does the source give for Cc1cc(-c2ncnc3[nH]c(-c4ccc(N5CCN(CC6CCN(c7ccc(N8CCC(=O)NC8=O)cc7)CC6)CC5)cc4)nc23)ccc1[C@@H](C)NC(=O)c1noc(C(C)(C)C)n1 [Example 68, (R)-5-(tert-butyl)-N-(1-(4-(8-(4-(4-((1-(4-(2,4-dioxotetrahydropyrimidin-1(2H)-yl)phenyl)piperidin-4-yl)methyl)piperazin-1-yl)phenyl)-9H-purin-6-yl)-2-methylphenyl)ethyl)-1,2,4-oxadiazole-3-carboxamide] here?
Answer: Its IC50 is over 10000 nM.

Question: What about the DC50 (BTK) of the same compound?
Answer: The DC50 was 1.08 nM.

Question: Which results are given for Cc1cc(-c2ncnc3[nH]c(-c4ccc(C5CCN(CC6CCN(c7ccc(N8CCC(=O)NC8=O)cc7)CC6)CC5)cc4)cc23)ccc1[C@@H](C)NC(=O)c1nc(C(C)(C)C)no1 [Example 7, (R)-3-(tert-butyl)-N-(1-(4-(6-(4-(1-((1-(4-(2,4-dioxotetrahydropyrimidin-1(2H)-yl)phenyl)piperidin-4-yl)methyl)piperidin-4-yl)phenyl)-7H-pyrrolo[2,3-d]pyrimidin-4-yl)-2-methylphenyl)ethyl)-1,2,4-oxadiazole-5-carboxamide]?
Answer: IC50 (HEK-293 cells): 1600 nM; DC50 (BTK): 1.3 nM

Question: Which IC50 (HEK-293 cells) does the source give for C[C@@H](NC(=O)c1nc(C(C)(C)C)no1)c1cc(F)c(-c2ncnc3[nH]c(-c4ccc(N5CCN(CC6CCN(c7ccc(N8CCC(=O)NC8=O)cc7)CC6)CC5)cn4)cc23)cc1CO [Example 178, (R)-3-(tert-butyl)-N-(1-(4-(6-(5-(4-((1-(4-(2,4-dioxotetrahydropyrimidin-1(2H)-yl)phenyl)piperidin-4-yl)methyl)piperazin-1-yl)pyridin-2-yl)-7H-pyrrolo[2,3-d]pyrimidin-4-yl)-5-fluoro-2-(hydroxymethyl)phenyl)ethyl)-1,2,4-oxadiazole-5-carboxamide] here?
Answer: The IC50 was over 10000 nM.

Question: What about the DC50 (BTK) of the same compound?
Answer: The DC50 was 0.44 nM.

Question: Which results are given for Cc1cc(-c2ncnc3[nH]c(-c4ccc(C5CN(CC6CCN(c7ccc(N8CCC(=O)NC8=O)cc7)CC6)C5)cc4)cc23)ccc1[C@@H](C)NC(=O)c1nc(C(C)(C)C)no1 [Example 157, (R)-3-(tert-butyl)-N-(1-(4-(6-(4-(1-((1-(4-(2,4-dioxotetrahydropyrimidin-1(2H)-yl)phenyl)piperidin-4-yl)methyl)azetidin-3-yl)phenyl)-7H-pyrrolo[2,3-d]pyrimidin-4-yl)-2-methylphenyl)ethyl)-1,2,4-oxadiazole-5-carboxamide]?
Answer: IC50 (HEK-293 cells): > 10000 nM; DC50 (BTK): 1.04 nM

Question: Which results are given for Cc1cc(-c2ncnc3[nH]c(-c4ccc(C5CCN(CCC6CCN(c7ccc(N8CCC(=O)NC8=O)c(C)n7)CC6)CC5)cc4)cc23)ccc1CNC(=O)c1nc(C(C)(C)C)no1 [Example 13, 3-(tert-butyl)-N-(4-(6-(4-(1-(2-(1-(5-(2,4-dioxotetrahydropyrimidin-1(2H)-yl)-6-methylpyridin-2-yl)piperidin-4-yl)ethyl)piperidin-4-yl)phenyl)-7H-pyrrolo[2,3-d]pyrimidin-4-yl)-2-methylbenzyl)-1,2,4-oxadiazole-5-carboxamide]?
Answer: IC50 (HEK-293 cells): 1860 nM; DC50 (BTK): 2.3 nM

Question: How did the IC50 (HEK-293 cells) turn out when C[C@@H](NC(=O)c1noc(C(C)(C)C)n1)c1cc(F)c(-c2ncnc3[nH]c(-c4ccc(N5CCN(CC6CCN(c7ccc(N8CCC(=O)NC8=O)cc7)CC6)CC5)cn4)cc23)cc1CO [Example 171, (R)-5-(tert-butyl)-N-(1-(4-(6-(5-(4-((1-(4-(2,4-dioxotetrahydropyrimidin-1(2H)-yl)phenyl)piperidin-4-yl)methyl)piperazin-1-yl)pyridin-2-yl)-7H-pyrrolo[2,3-d]pyrimidin-4-yl)-5-fluoro-2-(hydroxymethyl)phenyl)ethyl)-1,2,4-oxadiazole-3-carboxamide] was run?
Answer: Its IC50 is over 10000 nM.

Question: What about the DC50 (BTK) of the same compound?
Answer: Its DC50 is 0.25 nM.
